According to US6203976A, “Methods of preparing compositions comprising chemicals capable of transcriptional modulation” (OSI Pharmaceuticals, Inc., priority 1994, dated 2001):
Where two headings read alike, the source gives them in different places.

What was measured:
[1] = system: MMTV (M10) promoter; test: High-throughput luciferase reporter assay, MMTV promoter (Screen III); type: cell-based, mouse; conditions: for FOLD INDUCTION RELATIVE TO SOLVENT CONTROL, MMTV: Screen III activators
Experimental: pMluci and pSV2Neo, an antibiotic resistance plasmid (112), were co-transfected into NIH/3T3 mouse fibroblast cells using the calcium phosphate precipitation method (103) with a commercially available kit (Pharmacia, Piscataway N.J.). Two days later, cells were transferred to media containing 0.4 mg/ml G418 and were grown for an additional 10-14 days. G418-resistant clones were isolated by standard methods. Once sufficient cell numbers were obtained, clones were analyzed based on several criteria: constitutive luciferase production, induction of luciferase expression by dexamethasone (1 μm, Sigma, St. Louis, Mo.), satisfactory attachment to microtiter plates used in the high-throughput screen and acceptable standard deviation in multiple luciferase expression assays (see below for assay protocol). This analysis was carried out using the luciferase assay conditions described above. Of the clones which satisfied the above criteria for the high throuphput screen, one clone, M10, was selected for use.

[2] = system: human G-CSF (G21) promoter; test: High-throughput luciferase reporter assay, G-CSF promoter (Screen III); conditions: for FOLD INHIBITION RELATIVE TO SOLVENT CONTROL, GCSF: Screen III inhibitors; for FOLD INHIBITION RELATIVE TO SOLVENT CONTROL, GCSF / FOLD INDUCTION RELATIVE TO SOLVENT CONTROL, GCSF: G21 cells, 6 hours; for FOLD INDUCTION RELATIVE TO SOLVENT CONTROL, GCSF: Screen III activators
[3] = system: human growth hormone (532) promoter; test: High-throughput luciferase reporter assay, human Growth Hormone promoter (Screen III); type: cell-based; conditions: for FOLD INDUCTION RELATIVE TO SOLVENT CONTROL, hGH: Screen III activators
[4] = Screen III inhibitors, M10 cells, 6 hours
[5] = Screen III inhibitors, 532 cells, 6 hours

Compound	FOLD INHIBITION RELATIVE TO SOLVENT CONTROL, MMTV [1, 4] [fold]	FOLD INHIBITION RELATIVE TO SOLVENT CONTROL, GCSF [2] [fold]	FOLD INHIBITION RELATIVE TO SOLVENT CONTROL, hGH [3, 5] [fold]	FOLD INDUCTION RELATIVE TO SOLVENT CONTROL, MMTV ([1]; M10 cells, 6 hours) [fold]	FOLD INDUCTION RELATIVE TO SOLVENT CONTROL, GCSF [2] [fold]	FOLD INDUCTION RELATIVE TO SOLVENT CONTROL, hGH ([3]; 532 cells, 6 hours) [fold]	also measured
c1ccc(-c2nccnc2-c2ccccn2)nc1 [compound 1641]	0.60	0.83	5.55	–	–	–	–
CC(=O)N(C)c1ccc(N)cc1 [Chemical #1374, 4'-Amino-N-methylacetanilide]	–	–	–	1.05	11.03	0.05	scored as positive in repeat assays, G-CSF ([2]; 48 independent luciferase assays performed on the same day): scored as positives in every single one of these assays
CC(C)(C)c1ccc(Br)cc1 [compound 2001]	–	–	–	1.12	3.11	0.74	–
CN(C)c1ccc(C(=N)c2ccc(N(C)C)cc2)cc1 [compound 183]	0.70	0.72	4.00	–	–	–	–
CCN(CC)CCCC(C)Nc1c2ccc(Cl)cc2nc2ccc(OC)cc12 (stereo not shown) [compound 423]	–	–	–	0.64	2.39	0.56	–
N[C@@H](CCCCNC(=O)OCc1ccccc1)C(=O)O [compound 1747]	–	–	–	0.86	0.78	6.16	–
O=C(O)c1ccc2c3c(ncnc13)-c1ccccc1C2=O [compound 378]	–	–	–	0.59	4.12	0.26	–
O=C(c1ccc(O)c(O)c1)c1c(O)cc(O)cc1O [compound 660]	1.04	10.0	0.34	–	–	–	–
O=S(=O)(O)c1ccc(-c2ccnc(-c3nnc(-c4ccc(S(=O)(=O)O)cc4)c(-c4ccc(S(=O)(=O)O)cc4)n3)c2)cc1 [compound 1648]	1.00	0.86	7.69	–	–	–	–
Cc1c(C(=O)O)c(O)cc2c1C(=O)c1c(O)c([C@@H]3O[C@H](CO)[C@@H](O)[C@H](O)[C@H]3O)c(O)c(O)c1C2=O [compound 240]	0.80	0.63	5.26	–	–	–	–
NC(=O)c1ccccc1O [compound 798]	0.68	–	0.90	–	–	–	–
ClCCCCCBr [compound 2097]	–	–	–	1.22	–	0.88	–
Cc1n[nH]cc1Br [compound 2082]	1.23	–	0.65	–	–	–	–
C[C@]12C=CC(=O)C=C1CC[C@@H]1[C@@H]2[C@@H](O)C[C@@]2(C)[C@H]1CC[C@]2(O)C(=O)CO [compound 764]	–	–	–	–	–	–	FOLD INHIBITION RELATIVE TO SOLVENT CONTROL, MMTV [1]: 0.59; FOLD INHIBITION RELATIVE TO SOLVENT CONTROL, hGH [3]: 4.54
O=c1c(O)c(-c2ccc(O)cc2O)oc2cc(O)cc(O)c12 [compound 371]	0.89	–	0.41	–	–	–	–
OCc1cccc(Cl)c1 [compound 2121]	1.14	–	0.40	–	–	–	–
